Measurements from patent publication US20050119318A1, “Inhibitors of HCV replication” (priority 2003, published 2005).

Key:
[1] = target: T1, HCV NS5B RdRp genotype 1b (Hepatitis C virus genotype 1b, UniProt Q9WMX2); experiment: HCV NS5B RdRp enzyme assay; format: biochemical; settings: HCV RdRp genotype 1b enzyme; read-out: RdRp Inhibition Range, IC50
T1 construct: The protein was expressed with an 18 amino acid C-terminal truncation to enhance the solubility; made in house; host or cells: E. coli BL21(DE3)
Protocol: HCV NS5B RdRp cloning, expression, and purification. The cDNA encoding the NS5B protein of HCV, genotype 1b, was cloned into the pET21a expression vector. The protein was expressed with an 18 amino acid C-terminal truncation to enhance the solubility. The E. coli competent cell line BL21(DE3) was used for expression of the protein. Cultures were grown at 37° C. for ˜4 hours until the cultures reached an optical density of 2.0 at 600 nm. The cultures were cooled to 20° C. and induced with 1 mM IPTG. Fresh ampicillin was added to a final concentration of 50 μg/ml and the cells were grown overnight at 20° C.
Cell pellets (3 L) were lysed for purification to yield 15-24 mgs of purified NS5B. The lysis buffer consisted of 20 mM Tris-HCl, pH 7.4, 500 mM NaCl, 0.5% triton X-100, 1 mM DTT, 1 mM EDTA, 20% glycerol, 0.5 mg/ml lysozyme, 10 mM MgCl2, 15 ug/ml deoxyribonuclease I, and Complete TM protease inhibitor tablets (Roche). After addition of the lysis buffer, frozen cell pellets were resuspended using a tissue homogenizer. To reduce the viscosity of the sample, aliquots of the lysate were sonicated on ice using a microtip attached to a Branson sonicator. The sonicated lysate was centrifuged at 100,000×g for 1 hr at 4° C. and filtered through a 0.2 μm filter unit (Corning). […]
HCV NS5B RdRp enzyme assay. […] Plates were read on a Packard Top Count NXT. […]

[2] = system: HCV replicon; experiment: HCV replicon FRET assay (HCV RdRp cell line); format: cell-based; settings: Hepatitis C virus, read-out: RdRp Inhibition Range, EC50
Description: FRET Assay Preparation. To perform the HCV FRET screening assay, 96-well cell culture plates were used. The FRET peptide (Anaspec, Inc.) (Taliani et al., Anal. Biochem. 240:60-67 (1996), expressly incorporated by reference in its entirety) contains a fluorescence donor, EDANS, near one end of the peptide and an acceptor, DABCYL, near the other end. The fluorescence of the peptide is quenched by […] resonance energy transfer (RET) between the donor and the acceptor, but as the NS3 protease cleaves the peptide the products are released from RET quenching and the fluorescence of the donor becomes apparent. […]
FRET Assay and Cytotoxicity Assay. […] After reading in a Cytoflour 4000 instrument (PE Biosystems), plates were rinsed with PBS and then used for FRET assay by the addition of 30 ul of the FRET peptide assay reagent described above (FRET Assay Preparation) per well. The plate was then placed into the Cytoflour 4000 instrument which had been set to 340 excite/490 emission, automatic mode for 20 cycles and the plate read in a kinetic mode. Typically, the signal to noise using an endpoint analysis after the reads was at least three-fold.
Compound analysis was determined by quantification of the relative HCV replicon inhibition and the relative cytotoxicity values. […]

T1 sequence (Q9WMX2 2420-2992): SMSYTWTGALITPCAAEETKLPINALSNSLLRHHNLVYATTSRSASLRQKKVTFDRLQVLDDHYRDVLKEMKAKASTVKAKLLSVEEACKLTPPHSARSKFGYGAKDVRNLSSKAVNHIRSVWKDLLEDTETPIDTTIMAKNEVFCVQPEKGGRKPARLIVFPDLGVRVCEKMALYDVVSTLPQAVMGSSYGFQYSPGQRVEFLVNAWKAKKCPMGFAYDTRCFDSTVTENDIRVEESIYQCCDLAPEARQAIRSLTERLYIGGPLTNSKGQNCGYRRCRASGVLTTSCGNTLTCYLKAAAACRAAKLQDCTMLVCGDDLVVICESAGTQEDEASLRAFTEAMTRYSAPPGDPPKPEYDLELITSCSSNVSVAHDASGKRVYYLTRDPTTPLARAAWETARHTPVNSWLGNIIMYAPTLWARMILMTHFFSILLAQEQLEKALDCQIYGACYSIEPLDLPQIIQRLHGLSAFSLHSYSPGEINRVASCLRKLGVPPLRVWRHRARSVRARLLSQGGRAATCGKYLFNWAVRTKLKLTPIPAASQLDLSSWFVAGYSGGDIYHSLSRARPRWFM

SMILES | IC50 [1] [µM] | EC50 [2] [µM]
Cn1c(-c2ccoc2)c(C2CCCCC2)c2ccc(-c3nnn[nH]3)cc21 [Compound 2] | 0.1 to 1 | 5 to 10
Cn1c(-c2ccoc2)c(C2CCCCC2)c2ccc(C(=O)Nc3nnn[nH]3)cc21 [Compound 1] | 0.1 to 1 | < 5
